Test results: patent US11753407B2, “Compounds for treating spinal muscular atrophy” (PTC Therapeutics, Inc., priority 2012, dated 2023)
One block for each molecule: values may come before it.

Legend:
[1] = tested on: Smn protein in SMA patient fibroblast cells (GM03813); assay: Smn protein assay in cultured cells (SMN HTRF); assay type: cell-based, human; conditions: SMA patient fibroblast cells, 48 hours; for EC1.5x for Smn protein expression: 7-point concentration curve, SMN HTRF, concentration producing 1.5 times Smn protein vs DMSO vehicle control; for maximum fold (Fold) increase of Smn protein: 7-point concentration data, fold relative to vehicle control
Method in brief: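 SMA patient fibroblasts (5,000 cells/well, DMEM-10% FBS) were treated for 48 h at 37 °C with a 7-point, 3.16-fold dilution series in triplicate. RIPA lysates were probed by HTRF (anti-SMN d2/kryptate, overnight, room temperature), reading 665/620 nm. EC1.5× is the concentration giving 1.5-fold Smn over DMSO vehicle.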

[2] = tested on: SMN2 minigene mRNA (SMN2-A minigene) in HEK293H cells; assay: SMN2 minigene mRNA splicing RT-qPCR assay in cultured cells; assay type: cell-based, human; conditions: Homo sapiens, HEK293-H; concentration increasing full length SMN2 mRNA 1.5-fold relative to vehicle-treated cells; HEK293H cells with SMN2-A minigene, 24 hours, 7-point concentration data; read-out: EC1.5x for production of full length SMN2 mRNA
Method in brief: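 HEK293H cells stably carrying the SMN2-A minigene were treated for 24 h at 37 °C with a 7-point, 3.16-fold dilution series of compound. Multiplex RT-qPCR measured exon 7-containing minigene FL mRNA against GAPDH, expressed relative to vehicle by modified ΔΔCt; the EC1.5× is the concentration giving a 1.5-fold increase.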

Structure (SMILES): CN1CC=C(c2ccc3nc(-c4ccc5nn(C)cc5c4)cc(=O)n3c2)CC1 [Compound 476, 2-(2-methyl-2H-indazol-5-yl)-7-(1-methyl-1,2,3,6-tetrahydropyridin-4-yl)-4H-pyrido[1,2-a]pyrimidin-4-one]
EC1.5x for Smn protein expression [1]: **** (an EC1.5x≤0.3 μM is indicated by four stars (****))
maximum fold (Fold) increase of Smn protein [1]: ***** (a fold increase >1.65 is indicated by five stars (*****))
EC (1.5-fold increase) [2]: < 0.1 µM
melting point: 226 to 228 °C

Structure (SMILES): CCN1CC=C(c2ccc3nc(-c4ccc5nn(C)cc5c4)cc(=O)n3c2)CC1 [Compound 477, 7-(1-ethyl-1,2,3,6-tetrahydropyridin-4-yl)-2-(2-methyl-2H-indazol-5-yl)-4H-pyrido[1,2-a]pyrimidin-4-one]
EC1.5x for Smn protein expression [1]: **** (an EC1.5x≤0.3 μM is indicated by four stars (****))
maximum fold (Fold) increase of Smn protein [1]: **** (a fold increase between >1.5 and ≤1.65 is indicated by four stars (****))
EC (1.5-fold increase) [2]: < 0.1 µM
melting point: 198 to 200 °C

Structure (SMILES): CCN1CCC(c2ccc3nc(-c4ccc5nc(C)cn5c4)cc(=O)n3c2)CC1 [Compound 478, 7-(1-ethylpiperidin-4-yl)-2-(2-methylimidazo[1,2-a]pyridin-6-yl)-4H-pyrido[1,2-a]pyrimidin-4-one]
EC1.5x for Smn protein expression [1]: **** (an EC1.5x≤0.3 μM is indicated by four stars (****))
maximum fold (Fold) increase of Smn protein [1]: ***** (a fold increase >1.65 is indicated by five stars (*****))
EC (1.5-fold increase) [2]: < 0.1 µM
melting point: 190 to 192 °C

Structure (SMILES): Cc1cn2cc(-c3cc(=O)n4cc(C5=CCN(C(C)C)CC5)ncc4n3)cc2c(C)n1 [Compound 479, 2-(1,3-dimethylpyrrolo[1,2-a]pyrazin-7-yl)-7-[1-(propan-2-yl)-1,2,3,6-tetrahydropyridin-4-yl]-4H-pyrazino[1,2-a]pyrimidin-4-one]
maximum fold (Fold) increase of Smn protein [1]: ** (a fold increase between >1.2 and ≤1.35 is indicated by two stars (**))
EC (1.5-fold increase) [2]: < 0.1 µM
melting point: 220 to 222 °C

Structure (SMILES): Cc1cn2nc(-c3cc(=O)n4cc(C5=CCNCC5)cc(C)c4n3)cc2c(C)n1 [Compound 480, 2-(4,6-dimethylpyrazolo[1,5-a]pyrazin-2-yl)-9-methyl-7-(1,2,3,6-tetrahydropyridin-4-yl)-4H-pyrido[1,2-a]pyrimidin-4-one]
EC1.5x for Smn protein expression [1]: **** (an EC1.5x≤0.3 μM is indicated by four stars (****))
maximum fold (Fold) increase of Smn protein [1]: ***** (a fold increase >1.65 is indicated by five stars (*****))
EC (1.5-fold increase) [2]: < 0.1 µM
melting point: > 300 °C

Structure (SMILES): Cc1cn2nc(-c3cc(=O)n4cc(C5=CCN(C)CC5)ccc4n3)cc2cn1 [Compound 484, 2-(6-methylpyrazolo[1,5-a]pyrazin-2-yl)-7-(1-methyl-1,2,3,6-tetrahydropyridin-4-yl)-4H-pyrido[1,2-a]pyrimidin-4-one]
EC1.5x for Smn protein expression [1]: **** (an EC1.5x≤0.3 μM is indicated by four stars (****))
maximum fold (Fold) increase of Smn protein [1]: ***** (a fold increase >1.65 is indicated by five stars (*****))
EC (1.5-fold increase) [2]: < 0.1 µM
melting point: 126 to 128 °C

Structure (SMILES): Cc1cc2cc(-c3cc(=O)n4cc(N5CCN(C)CC5)ccc4n3)oc2c(C)n1 [Compound 487, 2-(5,7-dimethylfuro[2,3-c]pyridin-2-yl)-7-(4-methylpiperazin-1-yl)-4H-pyrido[1,2-a]pyrimidin-4-one]
EC1.5x for Smn protein expression [1]: **** (an EC1.5x≤0.3 μM is indicated by four stars (****))
maximum fold (Fold) increase of Smn protein [1]: **** (a fold increase between >1.5 and ≤1.65 is indicated by four stars (****))
EC (1.5-fold increase) [2]: 0.1 to 0.3 µM
melting point: 256 to 258 °C

Structure (SMILES): CN1CCN(c2ccc3nc(-c4ccc5c(cnn5C)c4)cc(=O)n3c2)CC1 [Compound 489, 2-(1-methyl-1H-indazol-5-yl)-7-(4-methylpiperazin-1-yl)-4H-pyrido[1,2-a]pyrimidin-4-one]
EC1.5x for Smn protein expression [1]: ** (an EC1.5× between >1 μM and ≤3 μM is indicated by two stars (**))
maximum fold (Fold) increase of Smn protein [1]: **** (a fold increase between >1.5 and ≤1.65 is indicated by four stars (****))
EC (1.5-fold increase) [2]: 0.1 to 0.3 µM
melting point: 194 to 196 °C

Structure (SMILES): Cn1ncc2cc(-c3cc(=O)n4cc(N5CCNCC5)ccc4n3)ccc21 [Compound 490, 2-(1-methyl-1H-indazol-5-yl)-7-(piperazin-1-yl)-4H-pyrido[1,2-a]pyrimidin-4-one]
EC1.5x for Smn protein expression [1]: *** (an EC1.5× between >0.3 μM and ≤1 μM is indicated by three stars (***))
maximum fold (Fold) increase of Smn protein [1]: ***** (a fold increase >1.65 is indicated by five stars (*****))
EC (1.5-fold increase) [2]: < 0.1 µM
melting point: 206 to 208 °C

Structure (SMILES): CN(C)C1CCN(c2ccc3nc(-c4ccc5c(cnn5C)c4)cc(=O)n3c2)CC1 [Compound 491, 7-[4-(dimethylamino)piperidin-1-yl]-2-(1-methyl-1H-indazol-5-yl)-4H-pyrido[1,2-a]pyrimidin-4-one]
EC1.5x for Smn protein expression [1]: ** (an EC1.5× between >1 μM and ≤3 μM is indicated by two stars (**))
maximum fold (Fold) increase of Smn protein [1]: **** (a fold increase between >1.5 and ≤1.65 is indicated by four stars (****))
EC (1.5-fold increase) [2]: 0.3 to 1 µM
melting point: 209 to 212 °C

Structure (SMILES): CCN1CC=C(c2ccc3nc(-c4ccc5nc(C)oc5c4)cc(=O)n3n2)CC1 [Compound 493, 7-(1-ethyl-1,2,3,6-tetrahydropyridin-4-yl)-2-(2-methyl-1,3-benzoxazol-6-yl)-4H-pyrimido[1,2-b]pyridazin-4-one]
EC1.5x for Smn protein expression [1]: *** (an EC1.5× between >0.3 μM and ≤1 μM is indicated by three stars (***))
maximum fold (Fold) increase of Smn protein [1]: **** (a fold increase between >1.5 and ≤1.65 is indicated by four stars (****))
EC (1.5-fold increase) [2]: < 0.1 µM
melting point: 205 to 207 °C

Structure (SMILES): Cc1nc2ccc(-c3cc(=O)n4nc(C5CCNCC5)ccc4n3)cc2o1 [Compound 499, 2-(2-methyl-1,3-benzoxazol-6-yl)-7-(piperidin-4-yl)-4H-pyrimido[1,2-b]pyridazin-4-one]
EC1.5x for Smn protein expression [1]: **** (an EC1.5x≤0.3 μM is indicated by four stars (****))
maximum fold (Fold) increase of Smn protein [1]: ***** (a fold increase >1.65 is indicated by five stars (*****))
EC (1.5-fold increase) [2]: < 0.1 µM
melting point: 126 to 128 °C

Now from value to molecule, other results behind:

melting point: 202 to 204 °C
Structure (SMILES): Cc1cc2cc(-c3cc(=O)n4cc(N5CCN[C@@H](C)C5)ccc4n3)oc2c(C)n1 [Compound 488, 2-(5,7-dimethylfuro[2,3-c]pyridin-2-yl)-7-[(3S)-3-methylpiperazin-1-yl]-4H-pyrido[1,2-a]pyrimidin-4-one]
EC1.5x for Smn protein expression [1]: **** (an EC1.5x≤0.3 μM is indicated by four stars (****))
maximum fold (Fold) increase of Smn protein [1]: **** (a fold increase between >1.5 and ≤1.65 is indicated by four stars (****))
EC (1.5-fold increase) [2]: < 0.1 µM

melting point: 264 to 268 °C
Structure (SMILES): CCN1CCN(c2ccc3nc(-c4cc(Cl)c5nc(C)cn5c4)cc(=O)n3c2)CC1 [Compound 494, 2-(8-chloro-2-methylimidazo[1,2-a]pyridin-6-yl)-7-(4-ethylpiperazin-1-yl)-4H-pyrido[1,2-a]pyrimidin-4-one]
EC1.5x for Smn protein expression [1]: **** (an EC1.5x≤0.3 μM is indicated by four stars (****))
maximum fold (Fold) increase of Smn protein [1]: **** (a fold increase between >1.5 and ≤1.65 is indicated by four stars (****))
EC (1.5-fold increase) [2]: < 0.1 µM

melting point: 239 to 245 °C
Structure (SMILES): CCN1CCN(c2ccc3nc(-c4cc(Cl)c5nc(C)cn5c4)cc(=O)n3c2)C[C@H]1C [Compound 495, 2-(8-chloro-2-methylimidazo[1,2-a]pyridin-6-yl)-7-[(3R)-4-ethyl-3-methylpiperazin-1-yl]-4H-pyrido[1,2-a]pyrimidin-4-one]
EC1.5x for Smn protein expression [1]: **** (an EC1.5x≤0.3 μM is indicated by four stars (****))
maximum fold (Fold) increase of Smn protein [1]: ***** (a fold increase >1.65 is indicated by five stars (*****))
EC (1.5-fold increase) [2]: < 0.1 µM

melting point: 234 to 245 °C
Structure (SMILES): CCN1CCN(c2ccc3nc(-c4cc(Cl)c5nc(C)cn5c4)cc(=O)n3c2)C[C@@H]1C [Compound 496, 2-(8-chloro-2-methylimidazo[1,2-a]pyridin-6-yl)-7-[(3S)-4-ethyl-3-methylpiperazin-1-yl]-4H-pyrido[1,2-a]pyrimidin-4-one]
EC1.5x for Smn protein expression [1]: **** (an EC1.5x≤0.3 μM is indicated by four stars (****))
maximum fold (Fold) increase of Smn protein [1]: ***** (a fold increase >1.65 is indicated by five stars (*****))
EC (1.5-fold increase) [2]: < 0.1 µM

melting point: 278 to 281 °C
Structure (SMILES): Cc1cn2cc(-c3cc(=O)n4cc(N5CCN(C(C)C)[C@H](C)C5)ccc4n3)cc(Cl)c2n1 [Compound 497, 2-(8-chloro-2-methylimidazo[1,2-a]pyridin-6-yl)-7-[(3R)-3-methyl-4-(propan-2-yl)piperazin-1-yl]-4H-pyrido[1,2-a]pyrimidin-4-one]
EC1.5x for Smn protein expression [1]: *** (an EC1.5× between >0.3 μM and ≤1 μM is indicated by three stars (***))
maximum fold (Fold) increase of Smn protein [1]: **** (a fold increase between >1.5 and ≤1.65 is indicated by four stars (****))
EC (1.5-fold increase) [2]: < 0.1 µM

melting point: 264 to 270 °C
Structure (SMILES): Cc1cn2cc(-c3cc(=O)n4cc(N5CCN(C(C)C)[C@@H](C)C5)ccc4n3)cc(Cl)c2n1 [Compound 498, 2-(8-chloro-2-methylimidazo[1,2-a]pyridin-6-yl)-7-[(3S)-3-methyl-4-(propan-2-yl)piperazin-1-yl]-4H-pyrido[1,2-a]pyrimidin-4-one]
EC1.5x for Smn protein expression [1]: **** (an EC1.5x≤0.3 μM is indicated by four stars (****))
maximum fold (Fold) increase of Smn protein [1]: ***** (a fold increase >1.65 is indicated by five stars (*****))
EC (1.5-fold increase) [2]: < 0.1 µM
